{"source": "patent US20250235496A1", "about": "“USE OF BELLIDIFOLIN (BEL) AND/OR BEL-CONTAINING EXTRACT IN PREPARATION OF ANTIDEPRESSANT PRODUCT” (priority 2024, published 2025)", "assay": "Mass spectrometry imaging of mouse brain", "assay_type": "in vivo, mice", "conditions": "10, 20 and 40 mg/kg, 21 d"}
{"smiles": "COc1cc(O)c2c(=O)c3c(O)ccc(O)c3oc2c1", "note": "[BEL, bellidifolin]", "values": [{"measurement": "BEL signal in brain (mass spectrometry imaging), passage of BBB", "result": "BEL signals were detected"}]}
